Measurements: article PMC5399635 (The Journal of Pharmacology and Experimental Therapeutics, 2017)
Entries after “also recorded” stand apart in the source; their conditions may differ.

Tests used:
[1] = test system: morphine-induced antinociception; experiment: Hot plate model of nociception, antagonism of morphine; settings: Rattus norvegicus, po, read-out: ED50, antagonism of morphine analgesia
[2] = Quantitative whole body autoradiography; type: in vivo, rat; settings: for Concentration of radioactivity, Blood / Concentration of radioactivity, Brain / Concentration of radioactivity, Large intestine wall / Concentration of radioactivity, Liver / Concentration of radioactivity, Spinal cord / Concentration of radioactivity, Fetus (whole) / Concentration of radioactivity, Placenta / Concentration of radioactivity, Uterus: single oral 50 mg/kg
Procedure: Quantitative whole body autoradiography was conducted to track the overall distribution of a single oral dose of radiolabeled naloxegol in adult male and pregnant female rats.
Seven male Lister hooded rats (8–9 weeks old at dosing, body weight 255–290 g each) and 5 time-mated female Sprague-Dawley rats (body weight 347–392 g each) were supplied by Charles River UK Limited (Margate, Kent, UK). All animals were acclimated to the experimental unit before the study (males, 6 days; females, 13 days).
Animals were fasted overnight before dose administration. […] Male rats were administered a mean (±S.D.) of 5.62 (±0.06) MBq/kg; female rats received a mean of 5.60 (±0.03) MBq/kg.
One male rat was humanely euthanized by CO2 narcosis at 0.5, 1, 4, 24, 48, 168, and 504 hours postdose, respectively. One time-mated female rat was humanely euthanized at 0.5, 1, 4, 24, and 48 hours postdose, respectively.
After removal of the whiskers, legs, and tails, the carcasses were frozen by immersion in a mixture of solid CO2 in hexane for approximately 30 minutes and then embedded in a block of carboxymethylcellulose, which was frozen in the same way. After equilibration at approximately –20°C, sagittal sections (30 μm thick) were taken using a whole body cryomicrotome (Leica Biosystems GmbH, Nussloch, Germany). The sections were freeze dried in a chamber of the cryomicrotome before storage at ambient temperature. Carcasses were stored frozen (–20°C) until analysis. After analysis, samples were returned to storage at –20°C. Freeze-dried whole body sections were stored at room temperature.
The radioactivity present in various organs and tissues in whole body sections was determined by QWBA. After exposure, the imaging plates were scanned using a phosphorimage analyzer. Tissues and organs of interest were quantified using AIDA image analysis software (version 4.06; Raytest Isotopenmeßgeräte GmbH, Straubenhardt, Germany). For analysis, representative whole body sections were placed into close contact with phosphor screens and left for a 7-day period. A set of external standards were also exposed on each phosphor screen. These standards were prepared from blood spiked with a serial dilution of a ^14C-labeled reference solution, which was dispensed into holes drilled into a block of carboxymethylcellulose, frozen, and then sectioned in the same way as the animal samples.
After the phosphor screen was scanned, an image of the radioactivity in the sample was stored digitally. For quantitative analysis, six background areas were defined on each stored phosphor screen image. The software automatically calculated the mean background and subsequently subtracted this from all standards and tissues analyzed. A regression coefficient was derived by comparing the response of each standard with the nominal disintegrations per minute per gram over the range of radioactive concentration used and forcing the response curve through the origin. The concentrations of the standards used were in the range of 0.09 to 826.31 μg Eq/g. The response curve was linear over these concentrations and was assumed to be linear to the limit of reliable determination.
Organs or tissues from representative autoradiograms were identified and integrated. The back-calculated tissue concentrations (μg Eq/g) were then determined by the software. The limit of reliable measurement for each storage screen was calculated from the assessment of the mean background of the plate and taken to be three times the S.D. of the mean above background. At the specific activity used in this study, the limit of reliable measurement was in the range of 0.06 to 0.16 μg Eq/g.

other transporters = test system: other transporters; parameters: method as in earlier work; settings: ref 2013 AstraZeneca unpublished data; cited from earlier work
in vitro = settings: human; for Papp A→B at 2 h, 10 μM: Caco-2, pH 7.4, Papp A→B; for Papp B→A at 2 h, 10 μM: Caco-2, pH 7.4, Papp B→A
[3] = no P-gp inhibitor, mean of 3 experiments

## C=CCN1CC[C@]23c4c5ccc(O)c4O[C@H]2[C@@H](OCCOCCOCCOCCOCCOCCOCCOC)CC[C@@]3(O)[C@H]1C5 [Naloxegol, naloxegol]
[1]
  ED50: 55.4 mg/kg
Caco2 cells
  efflux transporter substrate status: substrate for at least one apically directed efflux transporter, likely the P-gp transporter; also recorded: substrate for the P-glycoprotein transporter
[2]; male rat, 0.5 h
  Concentration of radioactivity, Blood: 3.03 μg Eq/g
  Concentration of radioactivity, Brain: BLQ
  Concentration of radioactivity, Large intestine wall: 8.83 μg Eq/g
  Concentration of radioactivity, Liver: 43.40 μg Eq/g
  Concentration of radioactivity, Spinal cord: 0.06 μg Eq/g
[2]; male rat, 1 h
  Concentration of radioactivity, Blood: 4.11 μg Eq/g
  Concentration of radioactivity, Brain: 0.21 μg Eq/g
  Concentration of radioactivity, Large intestine wall: 14.09 μg Eq/g
  Concentration of radioactivity, Liver: 66.49 μg Eq/g
  Concentration of radioactivity, Spinal cord: 0.15 μg Eq/g
[2]; male rat, 4 h
  Concentration of radioactivity, Blood: 2.14 μg Eq/g
  Concentration of radioactivity, Brain: 0.14 μg Eq/g
  Concentration of radioactivity, Large intestine wall: 12.09 μg Eq/g
  Concentration of radioactivity, Liver: 58.74 μg Eq/g
[2]; male rat, 24 h
  Concentration of radioactivity, Liver: 4.61 μg Eq/g
[2]; male rat, 48 h
  Concentration of radioactivity, Liver: 7.74 μg Eq/g
[2]; male rat, 168 h
  Concentration of radioactivity, Liver: 1.03 μg Eq/g
[2]; pregnant female rat, 0.5 h
  Concentration of radioactivity, Blood: 12.38 μg Eq/g
  Concentration of radioactivity, Brain: 0.34 μg Eq/g
  Concentration of radioactivity, Fetus (whole): 3.10 μg Eq/g
  Concentration of radioactivity, Large intestine wall: 23.61 μg Eq/g
  Concentration of radioactivity, Liver: 68.67 μg Eq/g
  Concentration of radioactivity, Placenta: 21.09 μg Eq/g
  Concentration of radioactivity, Spinal cord: 0.24 μg Eq/g
  Concentration of radioactivity, Uterus: 31.19 μg Eq/g
[2]; pregnant female rat, 1 h
  Concentration of radioactivity, Blood: 7.80 μg Eq/g
  Concentration of radioactivity, Brain: 0.15 μg Eq/g
  Concentration of radioactivity, Fetus (whole): 1.99 μg Eq/g
  Concentration of radioactivity, Large intestine wall: 25.20 μg Eq/g
  Concentration of radioactivity, Liver: 56.01 μg Eq/g
  Concentration of radioactivity, Placenta: 12.89 μg Eq/g
  Concentration of radioactivity, Spinal cord: 0.10 μg Eq/g
  Concentration of radioactivity, Uterus: 82.21 μg Eq/g
[2]; pregnant female rat, 4 h
  Concentration of radioactivity, Blood: 6.92 μg Eq/g
  Concentration of radioactivity, Brain: 0.28 μg Eq/g
  Concentration of radioactivity, Fetus (whole): 2.23 μg Eq/g
  Concentration of radioactivity, Large intestine wall: 37.45 μg Eq/g
  Concentration of radioactivity, Liver: 58.78 μg Eq/g
  Concentration of radioactivity, Placenta: 14.78 μg Eq/g
  Concentration of radioactivity, Spinal cord: 0.12 μg Eq/g
  Concentration of radioactivity, Uterus: 185.03 μg Eq/g
[2]; pregnant female rat, 24 h
  Concentration of radioactivity, Fetus (whole): 0.17 μg Eq/g
  Concentration of radioactivity, Liver: 4.42 μg Eq/g
  Concentration of radioactivity, Placenta: 0.16 μg Eq/g
  Concentration of radioactivity, Uterus: 19.04 μg Eq/g
[2]; pregnant female rat, 48 h
  Concentration of radioactivity, Fetus (whole): BLQ
  Concentration of radioactivity, Liver: 2.68 μg Eq/g
  Concentration of radioactivity, Placenta: BLQ
  Concentration of radioactivity, Uterus: 4.00 μg Eq/g
[2]; rat, naloxegol-derived radioactivity
  time to elimination of radioactivity from most tissues: ≤ 24 h
Other transporters
  substrate status for other transporters: not a substrate of other transporters
In vitro; Cyclosporin A
  Papp A→B at 2 h, 10 μM: 1.8 ×10⁻⁶ cm/s
  Papp B→A at 2 h, 10 μM: 1.8 ×10⁻⁶ cm/s
In vitro; Elacridar, 0.5 μM
  Papp A→B at 2 h, 10 μM: 2.3 ×10⁻⁶ cm/s
  Papp B→A at 2 h, 10 μM: 2.5 ×10⁻⁶ cm/s
In vitro; Verapamil, 100 μM
  Papp A→B at 2 h, 10 μM: 1.3 ×10⁻⁶ cm/s
  Papp B→A at 2 h, 10 μM: 1.7 ×10⁻⁶ cm/s
In vitro; [3]
  Papp A→B at 2 h, 10 μM: 0.7 ×10⁻⁶ cm/s
  Papp B→A at 2 h, 10 μM: 8.4 ×10⁻⁶ cm/s
